Assay results published in patent US20250346575A1, “ISOINDOLINONE DERIVATIVE HAVING GLUTARIMIDE MOTHER NUCLEUS, AND USE THEREOF” (KOREA RESEARCH INSTITUTE OF CHEMICAL TECHNOLOGY, priority 2021, published 2025).

What was measured:
Cancer cells (KG-1) = experiment: Cytotoxicity assay, WST-1, KG-1; format: cell-based
Experimental: To evaluate the effect of the compounds of the present disclosure on cancer cells, a cytotoxicity assay was conducted as follows.
Cancer cells (KG-1) were seeded at a concentration of 10,000 cells per well into a 96-well plate. Then, the cells were treated with predetermined concentrations of compounds of the Examples and comparative substances (comparative compounds 1, 2, 3). After 72 hours, the cells were incubated with WST-1 reagent for one hour. Then, absorbance was measured at 450 nm using a spectramax spectrophotometer to assess the degree of cancer cell apoptosis. The IC50 (μM) values were calculated using the measured values with the GraphPad Prism program and the measurements are summarized in Table 1.

[1] = test system: NCI-H1155 (lung cancer cells); experiment: CytoX cell viability assay, NCI-H1155; format: cell-based; conditions: for viability at 0.01 µM / viability at 0.5 µM: Homo sapiens, NCI-H1155; for cytotoxic activity against cancer cells, H1155 cells (in words): (6+6) bicyclic heteroaryl compared to (6+5) bicyclic heteroaryl (Compounds 56-58 and 62-70)
Experimental: The survival rate of NCI-H1155 (lung cancer cells) was measured using the CytoX cell viability assay kit (LPS solution, #CYT3000). NCI-H1155 cells were inoculated into 12-well plates. Afterwards, the cells were treated with each compound of the present disclosure and a comparative substance (CC-90009) at concentrations of 10 nM and 500 nM for 72 hours. Then, CytoX solution was added to the cells, incubated for one hour, and the absorbance of each well was read at 450 nm using a microplate reader to calculate the % viability, and the measurements are summarized in Table 2

## O=C1CCC(N2Cc3cc(CNC(=O)c4c[nH]c5ccc(Cl)cc45)ccc3C2=O)C(=O)N1 (stereo not drawn) [Compound 7, 5-Chloro-N-((2-(2,6-dioxopiperidin-3-yl)-1-oxoisoindolin-5-yl)methyl)-1H-indole-3-carboxamide]
Cancer cells (KG-1); Homo sapiens, KG-1 cells, 72 hours, WST-1
  IC50: 0.01 to 1 µM
Cancer cells (KG-1); R1 bicyclic heteroaryl compared to monocyclic aryl (comparative substance) or heteroaryl (Compounds 37 and 38)
  cytotoxic activity against KG-1 and NCI-H1155 cancer cells (in words): more potent cytotoxic activity

## O=C1CCC(N2Cc3cc(CNC(=O)c4cc5cc(C(F)(F)F)ccc5s4)ccc3C2=O)C(=O)N1 (stereo not drawn) [Compound 73, N-((2-(2,6-Dioxopiperidin-3-yl)-1-oxoisoindolin-5-yl)methyl)-5-(trifluoromethyl)benzo[b]thiophene-2-carboxamide]
[1]; 10 nM, 72 hours
  viability at 0.01 µM: 40.4%
[1]; 500 nM, 72 hours
  viability at 0.5 µM: 26%

## COc1cccc2sc(C(=O)NCc3ccc4c(c3)CN(C3CCC(=O)NC3=O)C4=O)cc12 (stereo not drawn) [Compound 74, N-((2-(2,6-Dioxopiperidin-3-yl)-1-oxoisoindolin-5-yl)methyl)-4-methoxybenzo[b]thiophene-2-carboxamide]
[1]; 10 nM, 72 hours
  viability at 0.01 µM: 26.6%
[1]; 500 nM, 72 hours
  viability at 0.5 µM: 25.4%

## Cc1c(C(=O)NCc2ccc3c(c2)CN(C2CCC(=O)NC2=O)C3=O)sc2ccccc12 (stereo not drawn) [Compound 76, N-((2-(2,6-Dioxopiperidin-3-yl)-1-oxoisoindolin-5-yl)methyl)-3-methylbenzo[b]thiophene-2-carboxamide]
[1]; 10 nM, 72 hours
  viability at 0.01 µM: 28%
[1]; 500 nM, 72 hours
  viability at 0.5 µM: 26.3%

## COc1ccc2cc(C(=O)NCc3ccc4c(c3)CN(C3CCC(=O)NC3=O)C4=O)oc2c1 (stereo not drawn) [Compound 83, N-((2-(2,6-Dioxopiperidin-3-yl)-1-oxoisoindolin-5-yl)methyl)-6-methoxybenzofuran-2-carboxamide]
[1]; 10 nM, 72 hours
  viability at 0.01 µM: 26.1%
[1]; 500 nM, 72 hours
  viability at 0.5 µM: 15.9%

## O=C1CCC(N2Cc3cc(CNC(=O)c4cc5ccccc5s4)ccc3C2=O)C(=O)N1 (stereo not drawn) [Compound 58, N-((2-(2,6-Dioxopiperidin-3-yl)-1-oxoisoindolin-5-yl)methyl)benzo[b]thiophene-2-carboxamide]
[1]; 10 nM, 72 hours
  viability at 0.01 µM: 4.31%
[1]; 500 nM, 72 hours
  viability at 0.5 µM: 2.96%

## Cc1c(C(=O)NCc2ccc3c(c2)CN(C2CCC(=O)NC2=O)C3=O)sc2ccc(Cl)cc12 (stereo not drawn) [Compound 75, 5-Chloro-N-((2-(2,6-dioxopiperidin-3-yl)-1-oxoisoindolin-5-yl)methyl)-3-methylbenzo[b]thiophene-2-carboxamide]
[1]; 10 nM, 72 hours
  viability at 0.01 µM: 32.1%
[1]; 500 nM, 72 hours
  viability at 0.5 µM: 24.5%

## O=C1CCC(N2Cc3cc(CNC(=O)c4cc5cccc(C(F)(F)F)c5s4)ccc3C2=O)C(=O)N1 (stereo not drawn) [Compound 71, N-((2-(2,6-Dioxopiperidin-3-yl)-1-oxoisoindolin-5-yl)methyl)-7-(trifluoromethyl)benzo[b]thiophene-2-carboxamide]
[1]; 10 nM, 72 hours
  viability at 0.01 µM: 24.2%
[1]; 500 nM, 72 hours
  viability at 0.5 µM: 24.4%

## O=C1CCC(N2Cc3cc(CNC(=O)c4cc5ccccc5oc4=O)ccc3C2=O)C(=O)N1 (stereo not drawn) [Compound 60, N-((2-(2,6-Dioxopiperidin-3-yl)-1-oxoisoindolin-5-yl)methyl)-2-oxo-2H-cromene-3-carboxamide]
[1]
  cytotoxic activity against cancer cells, H1155 cells (in words): less cytotoxic activity
[1]; 10 nM, 72 hours
  viability at 0.01 µM: 82%
[1]; 500 nM, 72 hours
  viability at 0.5 µM: 22.3%

## O=C1CCC(N2Cc3cc(CNC(=O)c4cc5c(ccc6ccccc65)o4)ccc3C2=O)C(=O)N1 (stereo not drawn) [Compound 86, N-((2-(2,6-Dioxopiperidin-3-yl)-1-oxoisoindolin-5-yl)methyl)naphtho[2,1-b]furan-2-carboxamide]
[1]; 10 nM, 72 hours
  viability at 0.01 µM: 14.7%
[1]; 500 nM, 72 hours
  viability at 0.5 µM: 14.7%

## COc1ccc2[nH]c(C(=O)NCc3ccc4c(c3)CN(C3CCC(=O)NC3=O)C4=O)cc2c1 (stereo not drawn) [Compound 57, N-((2-(2,6-Dioxopiperidin-3-yl)-1-oxoisoindolin-5-yl)methyl)-5-methoxy-1H-indole-2-carboxamide]
[1]; 10 nM, 72 hours
  viability at 0.01 µM: 83.8%
[1]; 500 nM, 72 hours
  viability at 0.5 µM: 21.2%

## Cc1c(C(=O)NCc2ccc3c(c2)CN(C2CCC(=O)NC2=O)C3=O)sc2c(Cl)cccc12 (stereo not drawn) [Compound 78, 7-Chloro-N-((2-(2,6-dioxopiperidin-3-yl)-1-oxoisoindolin-5-yl)methyl)-3-methylbenzo[b]thiophene-2-carboxamide]
[1]; 10 nM, 72 hours
  viability at 0.01 µM: 15.7%
[1]; 500 nM, 72 hours
  viability at 0.5 µM: 15.6%

## O=C1CCC(N2Cc3cc(CNC(=O)c4cc5ccccc5o4)ccc3C2=O)C(=O)N1 (stereo not drawn) [Compound 56, N-((2-(2,6-Dioxopiperidin-3-yl)-1-oxoisoindolin-5-yl)methyl)benzofuran-2-carboxamide]
[1]; 10 nM, 72 hours
  viability at 0.01 µM: 29.8%
[1]; 500 nM, 72 hours
  viability at 0.5 µM: 5.94%

## O=C1CCC(N2Cc3cc(CNC(=O)c4cnnc5ccccc45)ccc3C2=O)C(=O)N1 (stereo not drawn) [Compound 61, N-((2-(2,6-Dioxopiperidin-3-yl)-1-oxoisoindolin-5-yl)methyl)cinnoline-4-carboxamide]
[1]
  cytotoxic activity against cancer cells, H1155 cells (in words): less cytotoxic activity
[1]; 10 nM, 72 hours
  viability at 0.01 µM: 96.8%
[1]; 500 nM, 72 hours
  viability at 0.5 µM: 87.2%

## O=C1CCC(N2Cc3cc(CNC(=O)c4sc5cc(C(F)(F)F)ccc5c4Cl)ccc3C2=O)C(=O)N1 (stereo not drawn) [Compound 72, 3-chloro-N-((2-(2,6-dioxopiperidin-3-yl)-1-oxoisoindolin-5-yl)methyl)-6-(trifluoromethyl)benzo[b]thiophene-2-carboxamide]
[1]; 10 nM, 72 hours
  viability at 0.01 µM: 33%
[1]; 500 nM, 72 hours
  viability at 0.5 µM: 24.6%

## Cc1c(C(=O)NCc2ccc3c(c2)CN(C2CCC(=O)NC2=O)C3=O)sc2cccc(Cl)c12 (stereo not drawn) [Compound 77, 4-Chloro-N-((2-(2,6-dioxopiperidin-3-yl)-1-oxoisoindolin-5-yl)methyl)-3-methylbenzo[b]thiophene-2-carboxamide]
[1]; 10 nM, 72 hours
  viability at 0.01 µM: 24%
[1]; 500 nM, 72 hours
  viability at 0.5 µM: 24%

## Cc1ccc2c(Cl)c(C(=O)NCc3ccc4c(c3)CN(C3CCC(=O)NC3=O)C4=O)sc2c1 (stereo not drawn) [Compound 67, 3-Chloro-N-((2-(2,6-dioxopiperidin-3-yl)-1-oxoisoindolin-5-yl)methyl)-6-methylbenzo[b]thiophene-2-carboxamide]
[1]; 10 nM, 72 hours
  viability at 0.01 µM: 26.1%
[1]; 500 nM, 72 hours
  viability at 0.5 µM: 24.4%

## COc1ccc2sc(C(=O)NCc3ccc4c(c3)CN(C3CCC(=O)NC3=O)C4=O)cc2c1 (stereo not drawn) [Compound 65, N-((2-(2,6-Dioxopiperidin-3-yl)-1-oxoisoindolin-5-yl)methyl)-5-methoxybenzo[b]thiophene-2-carboxamide]
[1]; 10 nM, 72 hours
  viability at 0.01 µM: 31.7%
[1]; 500 nM, 72 hours
  viability at 0.5 µM: 23.4%

## Cc1c(C(=O)NCc2ccc3c(c2)CN(C2CCC(=O)NC2=O)C3=O)sc2cccc(F)c12 (stereo not drawn) [Compound 79, N-((2-(2,6-Dioxopiperidin-3-yl)-1-oxoisoindolin-5-yl)methyl)-4-fluoro-3-methylbenzo[b]thiophene-2-carboxamide]
[1]; 10 nM, 72 hours
  viability at 0.01 µM: 16.2%
[1]; 500 nM, 72 hours
  viability at 0.5 µM: 15.2%

## O=C1CCC(N2Cc3cc(CNC(=O)C(F)(F)c4ccc(Cl)cc4)ccc3C2=O)C(=O)N1 (stereo not drawn) [CC-90009, reference compound]
[1]; 10 nM, 72 hours
  NCI-H1155 (% viability) at 10 nM: 85.0%
[1]; 500 nM, 72 hours
  NCI-H1155 (% viability) at 500 nM: 23.5%

## Cc1ccc2c(C)c(C(=O)NCc3ccc4c(c3)CN(C3CCC(=O)NC3=O)C4=O)oc2c1 (stereo not drawn) [Compound 84, N-((2-(2,6-Dioxopiperidin-3-yl)-1-oxoisoindolin-5-yl)methyl)-3,6-dimethylbenzofuran-2-carboxamide]
[1]; 10 nM, 72 hours
  viability at 0.01 µM: 28.9%
[1]; 500 nM, 72 hours
  viability at 0.5 µM: 18.2%

## O=C1CCC(N2Cc3cc(CNC(=O)c4cnc5cc(Cl)ccc5c4O)ccc3C2=O)C(=O)N1 (stereo not drawn) [Compound 59, 7-chloro-N-((2-(2,6-dioxopiperidin-3-yl)-1-oxoisoindolin-5-yl)methyl)-4-hydroxyquinoline-3-carboxamide]
[1]
  cytotoxic activity against cancer cells, H1155 cells (in words): less cytotoxic activity
[1]; 10 nM, 72 hours
  viability at 0.01 µM: 102%
[1]; 500 nM, 72 hours
  viability at 0.5 µM: 40.1%

## Cc1c(C(=O)NCc2ccc3c(c2)CN(C2CCC(=O)NC2=O)C3=O)oc2ccc(Br)cc12 (stereo not drawn) [Compound 85, 5-bromo-N-((2-(2,6-dioxopiperidin-3-yl)-1-oxoisoindolin-5-yl)methyl)-3-methylbenzofuran-2-carboxamide]
[1]; 10 nM, 72 hours
  viability at 0.01 µM: 36.6%
[1]; 500 nM, 72 hours
  viability at 0.5 µM: 18.6%

## COc1ccc2c(Cl)c(C(=O)NCc3ccc4c(c3)CN(C3CCC(=O)NC3=O)C4=O)sc2c1 (stereo not drawn) [Compound 68, 3-Chloro-N-((2-(2,6-dioxopiperidin-3-yl)-1-oxoisoindolin-5-yl)methyl)-6-methoxybenzo[b]thiophene-2-carboxamide]
[1]; 10 nM, 72 hours
  viability at 0.01 µM: 29.9%
[1]; 500 nM, 72 hours
  viability at 0.5 µM: 26.4%

## Cc1ccc2cc(C(=O)NCc3ccc4c(c3)CN(C3CCC(=O)NC3=O)C4=O)sc2c1 (stereo not drawn) [Compound 66, N-((2-(2,6-Dioxopiperidin-3-yl)-1-oxoisoindolin-5-yl)methyl)-6-methylbenzo[b]thiophene-2-carboxamide]
[1]; 10 nM, 72 hours
  viability at 0.01 µM: 32.1%
[1]; 500 nM, 72 hours
  viability at 0.5 µM: 26.1%

## COc1cccc2cc(C(=O)NCc3ccc4c(c3)CN(C3CCC(=O)NC3=O)C4=O)oc12 (stereo not drawn) [Compound 82, N-((2-(2,6-Dioxopiperidin-3-yl)-1-oxoisoindolin-5-yl)methyl)-7-methoxybenzofuran-2-carboxamide]
[1]; 10 nM, 72 hours
  viability at 0.01 µM: 39%
[1]; 500 nM, 72 hours
  viability at 0.5 µM: 17.6%

## Cc1c(C(=O)NCc2ccc3c(c2)CN(C2CCC(=O)NC2=O)C3=O)nn(CC(C)C)c1-c1ccc(Cl)cc1 (stereo not drawn) [Compound 62, 5-(4-Chlorophenyl)-N-((2-(2,6-dioxopiperidin-3-yl)-1-oxoisoindolin-5-yl)methyl)-1-isobutyl-4-methyl-1H-pyrazole-3-carboxamide]
[1]; 10 nM, 72 hours
  viability at 0.01 µM: 18.9%
[1]; 500 nM, 72 hours
  viability at 0.5 µM: 9.56%
